Assay results published in ChEMBL document CHEMBL1152117, “A versatile synthesis of 2-methoxyestradiol, an endogenous metabolite of estradiol which inhibits tubulin polymerization by binding to the colchicine binding site” (Bioorg Med Chem Lett, 1994).
The source made the active and inactive calls. The calls are words filed in the database; no cut-off is given here.

Columns and labels:
Mus musculus [1] = assay: In vivo inhibition of growth of solid tumors when administered orally in mice; Active; type: functional, organism-based
Mus musculus [2] = assay: In vivo inhibition of neovascularization of solid tumors when administered orally in mice; Active; type: functional, organism-based

COc1cc2c(cc1O)CC[C@@H]1[C@@H]2CC[C@]2(C)[C@@H](O)CC[C@@H]12
Activity (Mus musculus [1]): Active | Activity (Mus musculus [2]): Active
